Measurements as given in US20240216384A1, “COMPOSITION FOR PREVENTING OR TREATING METABOLIC DISEASES, CONTAINING TRICYCLO DERIVATIVE COMPOUND” (ONCOCROSS CO.,LTD., priority 2021, published 2024).
Where a name gives a salt, the structure may show the parent alone.

How the values were obtained:
HepG2 cell line = experiment: Oleic acid-induced fat accumulation, Oil-Red O staining; format: cell-based; conditions: for fat accumulation inhibitory effect: HepG2 treated with oleic acid, Oil-Red O
Procedure: By treating the HepG2 cell line, a liver cancer cell line, with oleic acid, fat accumulation was induced into cells, and simultaneously, JPI-289 was treated together to identify the effect of JPI-289 on inhibiting fat accumulation using the Oil-Red O staining method. Herein, INT-747, a drug that succeeded in phase 3 clinical trials for NASH indication, was treated as a positive control group.

[1] = tested on: MCF7, PC3, and HL60 cell lines; experiment: MTT analysis of JPI-289 toxicity in multiple cell lines; format: cell-based
Procedure: To identify the toxicity of JPI-289 to cells, MTT analysis was performed using three cell lines: MCF7, PC3, and HL60 (indicated as Cell 1 to Cell 3 in FIG. 1, respectively). Specifically, each cell line was treated with a control group, a DMSO control group (vehicle control), and JPI-289 (10-ethoxy-8-(morpholinomethyl)-2,3,4,6-tetrahydrobenzo[h][1,6]naphthyridin-5(1H)-one dihydrochloride dihydrate) at concentrations of 0.5, 1, 5, 10, 20, and 40 uM, and then treated with MTT tetrazolium after 24, 48, and 72 hours. Then, the cell viability was measured by forming formazan crystals, dissolving the same using DMSO (dimethyl sulfoxide), and measuring the absorbance using an ELISA reader.

3T3L1 cell line = experiment: MTT analysis of JPI-289 toxicity in preadipocyte cell line; format: cell-based, mouse; conditions: 0.05 to 5 uM for 24, 48, or 72 hours
Procedure: The 3T3L1 cell line, a preadipocyte cell line, was dispensed in a 96-well plate, and treated with JPI-289 at a concentration of 0.05 to 5 uM for 24, 48, or 72 hours, and MTT analysis was performed.

[2] = tested on: mouse preadipocyte cell line 3T3L1; experiment: Adipocyte differentiation / fat accumulation, Oil-Red O staining; format: cell-based; conditions: for differentiation into adipocytes: 3T3L1, Oil-Red O
Procedure: To induce differentiation of mouse preadipocyte cell line 3T3L1 into adipocytes, DMEM medium containing 10% FBS was treated with insulin, dexamethasone, and isobutylmetylxanthin (IBMX). JPI-289 was treated with a differentiation medium from the start day of inducing differentiation into adipocytes to the end of differentiation. At the end of differentiation, cells were fixed and differentiated adipocytes were stained red using Oil-Red O. The degree of staining was recorded in a photograph, Oil Red was dissolved, and the O.D. value was measured using an ELISA reader.
To identify the inhibitory effect of JPI-289 at a concentration of 5 uM or less on adipocyte differentiation, a re-experiment was performed on the 3T3L1 cell line. Specifically, JPI-289s at concentrations of 0.05, 0.1, 0.25, 0.5, 1, and 2.5 uM were treated together with the differentiation culture medium, respectively, to induce differentiation into adipocytes, and the differentiation into adipocytes and fat accumulation were identified by staining using Oil-Red O.
The fat accumulation inhibitory effects of other PARP inhibitors, 5-AIQ (10 uM), PJ34 (10 uM), and olaparib (5 uM), and JPI-289 (0.25 to 2.5 uM) were compared in the mouse preadipocyte cell line 3T3L1 by the method of Example 2 above.

PARylation = PARylation in Hep3B cells in NASH environment (H2O2, TCDD); format: cell-based; conditions: 10 uM, 24 hours, 300 uM H2O2, TCDD 10 nM, compared to PJ-34
Procedure: (§1) A MOA study was conducted to identify the mechanism that has a more significant effect than other PARP inhibitors as in Example 3-1. Specifically, the Hep3B cell line was treated with 300 uM H2O2 for 2 hours to generate a ROS rich situation for NASH, and treated with TCDD (Tetrachlorodibenzo-p-dioxin) at 10 nM for 24 hours to induce overexpression of TIPARP. Then, PARylation was identified, and the influences of JPI-289 (10 uM and 24 hours) and PJ34 (10 uM and 24 hours) were identified, respectively. In addition, DMOG, which induces hypoxia by inhibiting the degradation of HIF-1α, a hypoxia-related gene that appears in the early stages of fibrosis, was treated at 1 mM for 24 hours, and the influences of JPI-289 (10 uM and 24 hours) and PJ34 (10 uM and 24 hours) were also identified. In addition, as a positive control group, it was compared with INT-747, a drug that successfully completed phase 3 clinical trials for NASH indication.

TIPARP = TIPARP expression in Hep3B cells upon TCDD; format: cell-based; conditions: for expression of TIPARP: 10 uM, 24 hours, upon TCDD administration (FIG. 7B)
Procedure: as §1

HIF-1α [3] = experiment: HIF-1α expression in Hep3B cells upon DMOG; format: cell-based; conditions: 10 uM, 24 hours, DMOG 1 mM
Procedure: as §1

PARP1 = PARP1 expression in Hep3B cells upon TCDD; format: cell-based; conditions: compared to INT-747-treated group
Procedure: as §1

vimentin = experiment: Vimentin expression in Hep3B cells upon TCDD; format: cell-based; conditions: compared to INT-747-treated group
Procedure: as §1

HIF-1α [4] = experiment: HIF-1α expression in liver of high-fat diet mice, tissue immunochemical analysis; format: in vivo; conditions: JPI-289 50 mpk for 6 weeks, compared to PJ34 (10 mpk) or INT-747 (10 mpk)
Procedure: To identify the HIF-1 inhibitory effect of INT-747 and JPI-289 in Example 4-1 also in vivo, 5-week-old mice were placed on a high-fat diet (HFD) 1 week after introduction. After 6 weeks, JPI-289 (50 mpk), PJ34 (10 mpk), and INT-747 (10 mpk) were administered for a total of 6 weeks, respectively, and the level of HIF-1α expression in the liver was identified by tissue immunochemical analysis.

TGF-beta2 = TGF-beta2 inhibition at RNA level in Hep3B cells; format: cell-based; conditions: compared to INT-747
Procedure: as §1
The inhibitory effects of TGF-beta2 (a downstream signal of HIF-1) by JPI-289 and INT-747 in Hep3B cell line were compared at the RNA level under the same conditions as in Example 4-1.

[5] = tested on: high-fat diet mouse model; experiment: High-fat diet animal model: body weight, liver size and weight; format: in vivo; conditions: 6 weeks; for liver size and weight: compared to high-fat diet group
Procedure: A high-fat diet animal model was created, and after 6 weeks, JPI-289 (JPI) and a positive control group of INT-747 (INT) were administered for a total of 6 weeks (FIG. 12), and body weight, liver size, and weight were checked. As a result, weight loss was identified in the group administered 50 mpk of JPI-289 compared to the high-fat diet group and the INT-747 administration group (FIG. 13). In addition, compared to the high-fat diet group, liver size and weight were decreased in the JPI-289 10 mpk administration group, JPI-289 50 mpk administration group, and INT-747 10 mpk administration group.

STAM™ mouse model [6] = experiment: STAM mouse model, short-term (3 weeks) administration; format: in vivo
Procedure: Streptozotocin was administered on the second day after birth, and a high-fat diet was administered starting 4 weeks after birth, causing non-alcoholic steatohepatitis (NASH) at 7 to 8 weeks of age. To identify the effect of JPI-289 on NASH and early fibrosis in the STAM™ mouse model (FIG. 15) in which fibrosis is induced by steatohepatitis at 9 to 12 weeks, the drug was administered at 10 mg/kg and 50 mg/kg, respectively for a total of 3 weeks, from 6 to 9 weeks, and the fibrosis-induced area was identified (FIG. 16).
JPI-289 was administered as in Example 6-1, and the NAFLD score and ballooning score were identified as values for evaluating fatty liver.

STAM™ mouse model [7] = experiment: STAM mouse model, long-term (6 weeks) administration; format: in vivo
Procedure: After administering JPI-289 (10 mg/kg) for a total of 6 weeks from 6 to 12 weeks in the same manner as in Example 6 (FIG. 19), the fibrosis area was checked.
After administering JPI-289 (10 mg/kg) for a total of 6 weeks from 6 to 12 weeks in the same manner as in Example 6, the NAFLD score and ballooning score were checked to identify the degree of inhibition of fatty liver.

[8] = 10 mg/kg, 6 weeks, compared to control group

CC[C@H]1[C@@H](O)[C@@H]2[C@H](CC[C@]3(C)[C@@H]([C@H](C)CCC(=O)O)CC[C@@H]23)[C@@]2(C)CC[C@@H](O)C[C@@H]12 [INT-747, reference compound]
fat accumulation inhibitory effect (HepG2 cell line): about 13%

CCOc1cc(CN2CCOCC2)cc2[nH]c(=O)c3c(c12)NCCC3 [JPI-289, 10-ethoxy-8-(morpholinomethyl)-2,3,4,6-tetrahydrobenzo[h][1,6]naphthyridin-5(1H)-one dihydrochloride dihydrate]
toxicity to cells (MTT cell viability) ([1]; concentrations of 20 and 40 uM): toxic
toxicity to cells (MTT cell viability) ([1]; up to a concentration of 10 uM, for 72 hours): not toxic
toxicity (MTT analysis) (3T3L1 cell line): no significant effect
fat accumulation decrease ([2]; 250 nM (0.25 uM), 3T3L1): about 37%
differentiation into adipocytes ([2]; 5 uM or higher): inhibited depending on the concentration
fat accumulation in 3T3L1 cells ([2]; 5 uM or higher, Oil-Red O): significantly decreased
differentiation into adipocytes ([2]; 0.05 to 2.5 uM): inhibited depending on the concentration
fat accumulation inhibitory effect compared to olaparib 5 uM ([2]; JPI-289 2.5 uM, 3T3L1): similar
fat accumulation inhibitory effect compared to 5-AIQ (10 uM) and PJ34 (10 uM) ([2]; JPI-289 0.25 to 2.5 uM, 3T3L1): significantly superior
inhibition at 0.05 µM ([2]; Mus musculus, 3T3-L1, 50 nM (0.05 uM), 3T3L1, read-out: differentiation inhibitory effect): ~15%
concentration dependence of fat accumulation inhibition (HepG2 cell line; HepG2, high concentrations): more effective at high concentrations
fat accumulation inhibitory effect (HepG2 cell line): about 21%
PARylation (PARylation): significantly inhibited
expression of TIPARP (TIPARP): significantly increased
TIPARP (TIPARP; upon TCDD, compared to INT-747-treated group (FIG. 8)): increased
expression of HIF-1α (HIF-1α [3]): significantly decreased
expression of PARP1 (PARP1): significantly decreased
expression of vimentin, a fibrosis marker (vimentin): decreased
HIF-1α expression in the liver (HIF-1α [4]): significantly decreased
TGF-beta2 at the RNA level (TGF-beta2): significantly inhibited
liver size and weight ([5]; 10 mpk): decreased
liver size and weight ([5]; 50 mpk): significant decrease
body weight ([5]; 50 mpk, compared to high-fat diet group and INT-747 group): weight loss
NAFLD score (STAM™ mouse model [6]; 10 mg/kg and 50 mg/kg, 3 weeks): decrease
ballooning score (STAM™ mouse model [6]; 10 mg/kg and 50 mg/kg, 3 weeks): decrease
fibrosis area (STAM™ mouse model [6]; 10 mg/kg and 50 mg/kg, 3 weeks (6 to 9 weeks of age)): significantly decreased
overall effect versus control group (STAM™ mouse model [6]; administered for 3 weeks, all dose groups): more effective than the control group
fibrosis area (STAM™ mouse model [7]; 10 mg/kg, 6 weeks (6 to 12 weeks), compared to Vehicle): significantly decreased
NAFLD score (STAM™ mouse model [7]; [8]): significantly decreased
ballooning score (STAM™ mouse model [7]; [8]): decreased
overall effect versus control group (STAM™ mouse model [7]; low dose for 6 weeks): superior effect compared to the control group

CN(C)CC(=O)Nc1ccc2[nH]c(=O)c3ccccc3c2c1 [PJ34, reference compound]
expression of TIPARP (TIPARP): almost no increase
expression of HIF-1α (HIF-1α [3]): did not decrease
